In ChEMBL document CHEMBL3627608, “Crystal structures of human RIP2 kinase catalytic domain complexed with ATP-competitive inhibitors: Foundations for understanding inhibitor selectivity” (Bioorg Med Chem, 2015) one finds inhibition and IC50 data, which are given here for three compounds.

Assay [1] concerns the target Tyrosine-protein kinase Srms (Homo sapiens) (UniProt Q9H3Y6). The assay can be described thus: Inhibition of SRMS (unknown origin) at 10 uM after 120 mins P33 radiolabeled kinase activity assay.
The species entered for assay [2] is Homo sapiens. Kind of assay: Inhibition of PKCbeta1 (unknown origin) at 10 uM after 120 mins P33 radiolabeled kinase activity assay.
For assay [3], the target named is T1, Beta-adrenergic receptor kinase 1 (Homo sapiens) (UniProt P25098).
T1 sequence (whole entry): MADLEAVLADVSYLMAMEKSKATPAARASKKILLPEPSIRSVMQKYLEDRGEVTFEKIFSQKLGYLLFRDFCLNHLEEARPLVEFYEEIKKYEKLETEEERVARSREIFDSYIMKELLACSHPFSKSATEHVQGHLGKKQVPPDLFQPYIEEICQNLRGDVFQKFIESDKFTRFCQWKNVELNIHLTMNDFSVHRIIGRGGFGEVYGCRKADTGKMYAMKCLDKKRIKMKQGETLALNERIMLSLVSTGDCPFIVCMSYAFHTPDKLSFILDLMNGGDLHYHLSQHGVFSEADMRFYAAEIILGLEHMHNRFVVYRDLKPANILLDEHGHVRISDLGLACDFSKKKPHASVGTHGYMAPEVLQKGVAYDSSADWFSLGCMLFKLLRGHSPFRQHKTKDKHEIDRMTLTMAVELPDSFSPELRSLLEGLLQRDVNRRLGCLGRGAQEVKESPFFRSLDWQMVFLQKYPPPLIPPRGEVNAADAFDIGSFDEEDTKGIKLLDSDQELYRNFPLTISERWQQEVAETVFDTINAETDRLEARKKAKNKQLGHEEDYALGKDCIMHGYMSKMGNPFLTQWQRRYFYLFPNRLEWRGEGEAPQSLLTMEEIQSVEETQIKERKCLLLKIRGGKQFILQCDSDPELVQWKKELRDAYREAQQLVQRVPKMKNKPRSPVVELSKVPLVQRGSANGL
Kind of assay: Inhibition of GRK2 (unknown origin) at 10 uM after 120 mins P33 radiolabeled kinase activity assay.

In assay [4] the target is CDK9/Cyclin K (Homo sapiens) (UniProt P50750+O75909). Kind of assay: Inhibition of CDK9/cyclin K (unknown origin) at 10 uM after 120 mins P33 radiolabeled kinase activity assay. It counts as protein-complex assay.
The target in assay [5] is Receptor-interacting serine/threonine-protein kinase 2 (Homo sapiens, UniProt O43353). Kind of assay: Inhibition of full-length FLAG-6His-TEV tagged human RIP2 expressed in Sf9 cells assessed as reduction in autophosphorylation pre-incubated for 30 mins followed by incubation with ATP for 2 hrs by ADP-Glo assay. Background: ADP-Glo first removes unused ATP, then detects ADP through luciferase.
Sequence of Receptor-interacting serine/threonine-protein kinase 2 (O43353 whole entry): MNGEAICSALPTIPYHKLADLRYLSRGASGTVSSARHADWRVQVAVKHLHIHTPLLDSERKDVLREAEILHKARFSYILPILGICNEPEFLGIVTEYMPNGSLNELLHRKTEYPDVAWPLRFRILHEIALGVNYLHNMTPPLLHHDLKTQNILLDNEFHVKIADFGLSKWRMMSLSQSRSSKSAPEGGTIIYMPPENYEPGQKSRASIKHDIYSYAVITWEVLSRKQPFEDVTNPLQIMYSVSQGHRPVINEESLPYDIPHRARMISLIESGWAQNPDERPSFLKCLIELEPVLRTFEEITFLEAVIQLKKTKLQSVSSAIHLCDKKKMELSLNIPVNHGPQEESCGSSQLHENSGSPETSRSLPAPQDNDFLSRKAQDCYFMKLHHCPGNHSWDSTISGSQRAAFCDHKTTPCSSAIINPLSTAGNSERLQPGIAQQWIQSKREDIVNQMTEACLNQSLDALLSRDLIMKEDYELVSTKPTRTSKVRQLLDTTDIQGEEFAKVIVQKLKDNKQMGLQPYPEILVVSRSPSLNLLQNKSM

Assay [6] addresses T2, Protein kinase C iota type (Homo sapiens) (UniProt P41743).
T2 sequence (whole entry): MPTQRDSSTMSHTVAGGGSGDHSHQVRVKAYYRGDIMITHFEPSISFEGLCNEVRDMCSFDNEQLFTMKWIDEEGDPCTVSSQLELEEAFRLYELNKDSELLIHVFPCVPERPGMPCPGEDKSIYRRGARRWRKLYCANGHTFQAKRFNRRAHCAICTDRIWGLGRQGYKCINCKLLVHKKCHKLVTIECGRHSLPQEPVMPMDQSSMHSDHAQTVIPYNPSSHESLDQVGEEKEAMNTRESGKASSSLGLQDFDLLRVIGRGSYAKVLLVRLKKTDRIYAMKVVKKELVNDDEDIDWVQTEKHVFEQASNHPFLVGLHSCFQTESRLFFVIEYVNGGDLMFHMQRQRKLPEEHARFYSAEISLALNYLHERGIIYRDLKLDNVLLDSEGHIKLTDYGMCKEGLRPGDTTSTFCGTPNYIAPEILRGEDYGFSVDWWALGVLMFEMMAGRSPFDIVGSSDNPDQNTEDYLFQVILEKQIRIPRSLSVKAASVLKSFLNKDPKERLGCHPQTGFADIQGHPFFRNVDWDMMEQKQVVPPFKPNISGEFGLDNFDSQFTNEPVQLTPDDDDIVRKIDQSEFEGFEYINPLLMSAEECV
The assay can be described thus: Inhibition of PKCiota (unknown origin) at 10 uM after 120 mins P33 radiolabeled kinase activity assay.

Assay [7] concerns the target T3, Calcium/calmodulin-dependent protein kinase type IV (Homo sapiens) (UniProt Q16566).
T3 sequence (whole entry): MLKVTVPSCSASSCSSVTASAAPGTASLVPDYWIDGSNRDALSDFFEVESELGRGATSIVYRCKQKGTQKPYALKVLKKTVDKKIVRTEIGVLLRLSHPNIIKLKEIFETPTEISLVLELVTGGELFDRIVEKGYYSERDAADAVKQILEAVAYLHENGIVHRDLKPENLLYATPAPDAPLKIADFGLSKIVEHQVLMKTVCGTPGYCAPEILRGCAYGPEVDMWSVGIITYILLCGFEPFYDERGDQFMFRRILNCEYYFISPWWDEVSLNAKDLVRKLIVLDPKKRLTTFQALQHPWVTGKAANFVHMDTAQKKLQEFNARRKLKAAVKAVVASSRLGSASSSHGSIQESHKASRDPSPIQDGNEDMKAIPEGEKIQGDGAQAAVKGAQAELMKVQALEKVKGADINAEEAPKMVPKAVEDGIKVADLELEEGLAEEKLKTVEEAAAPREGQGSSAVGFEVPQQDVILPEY
Kind of assay: Inhibition of CAMK4 (unknown origin) at 10 uM after 120 mins P33 radiolabeled kinase activity assay.

Assay [8] addresses T4, Tyrosine-protein kinase Tec (Homo sapiens) (UniProt P42680).
T4 sequence (whole entry): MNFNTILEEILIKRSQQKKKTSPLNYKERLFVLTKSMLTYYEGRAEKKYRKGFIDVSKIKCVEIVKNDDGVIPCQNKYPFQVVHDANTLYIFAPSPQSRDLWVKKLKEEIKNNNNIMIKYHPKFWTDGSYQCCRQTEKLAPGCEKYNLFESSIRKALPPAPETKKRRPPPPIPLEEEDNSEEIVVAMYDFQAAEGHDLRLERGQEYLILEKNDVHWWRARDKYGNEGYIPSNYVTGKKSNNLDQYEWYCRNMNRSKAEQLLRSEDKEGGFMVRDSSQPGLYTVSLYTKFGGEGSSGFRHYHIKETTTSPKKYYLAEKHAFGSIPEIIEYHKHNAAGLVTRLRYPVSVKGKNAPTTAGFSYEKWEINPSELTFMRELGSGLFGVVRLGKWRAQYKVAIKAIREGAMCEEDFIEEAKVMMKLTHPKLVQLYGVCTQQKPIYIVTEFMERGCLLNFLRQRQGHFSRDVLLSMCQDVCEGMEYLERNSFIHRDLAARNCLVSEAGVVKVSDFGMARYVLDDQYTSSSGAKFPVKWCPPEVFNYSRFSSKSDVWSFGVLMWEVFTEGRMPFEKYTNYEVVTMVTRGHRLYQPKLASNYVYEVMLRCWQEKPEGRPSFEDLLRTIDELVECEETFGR
Kind of assay: Inhibition of TEC (unknown origin) at 10 uM after 120 mins P33 radiolabeled kinase activity assay.

For assay [9], the target named is Ribosomal protein S6 kinase alpha-5 (Homo sapiens) (UniProt O75582). Kind of assay: Inhibition of MSK1 (unknown origin) at 10 uM after 120 mins P33 radiolabeled kinase activity assay.
Sequence of Ribosomal protein S6 kinase alpha-5 (Homo sapiens) (O75582 whole entry, looked up): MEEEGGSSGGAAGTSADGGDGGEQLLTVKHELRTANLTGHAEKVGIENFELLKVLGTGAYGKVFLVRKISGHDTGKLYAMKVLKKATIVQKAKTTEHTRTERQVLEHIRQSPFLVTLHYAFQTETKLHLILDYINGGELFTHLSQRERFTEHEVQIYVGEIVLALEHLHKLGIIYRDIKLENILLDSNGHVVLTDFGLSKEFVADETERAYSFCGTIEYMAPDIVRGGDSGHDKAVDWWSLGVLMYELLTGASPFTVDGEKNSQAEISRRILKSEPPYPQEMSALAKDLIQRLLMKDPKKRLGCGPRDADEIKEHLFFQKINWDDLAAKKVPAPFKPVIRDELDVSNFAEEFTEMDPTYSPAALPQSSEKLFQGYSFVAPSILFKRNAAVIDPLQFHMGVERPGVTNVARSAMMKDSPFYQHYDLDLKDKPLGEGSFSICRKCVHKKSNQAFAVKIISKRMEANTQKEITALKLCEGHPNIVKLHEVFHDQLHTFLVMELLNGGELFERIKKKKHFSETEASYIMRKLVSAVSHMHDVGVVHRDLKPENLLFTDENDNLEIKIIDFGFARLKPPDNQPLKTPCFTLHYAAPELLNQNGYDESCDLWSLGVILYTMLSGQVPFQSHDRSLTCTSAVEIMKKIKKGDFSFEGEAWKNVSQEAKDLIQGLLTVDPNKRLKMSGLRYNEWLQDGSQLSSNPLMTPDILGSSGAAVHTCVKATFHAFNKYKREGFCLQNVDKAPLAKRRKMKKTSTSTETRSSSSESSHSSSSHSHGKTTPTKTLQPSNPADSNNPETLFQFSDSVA

Usually inhibition stands for the drop in the measured response relative to a control, in per cent. For orientation: IC50 means the concentration that gives 50% inhibition.

Sequence of Tyrosine-protein kinase Srms (Homo sapiens) (Q9H3Y6 whole entry): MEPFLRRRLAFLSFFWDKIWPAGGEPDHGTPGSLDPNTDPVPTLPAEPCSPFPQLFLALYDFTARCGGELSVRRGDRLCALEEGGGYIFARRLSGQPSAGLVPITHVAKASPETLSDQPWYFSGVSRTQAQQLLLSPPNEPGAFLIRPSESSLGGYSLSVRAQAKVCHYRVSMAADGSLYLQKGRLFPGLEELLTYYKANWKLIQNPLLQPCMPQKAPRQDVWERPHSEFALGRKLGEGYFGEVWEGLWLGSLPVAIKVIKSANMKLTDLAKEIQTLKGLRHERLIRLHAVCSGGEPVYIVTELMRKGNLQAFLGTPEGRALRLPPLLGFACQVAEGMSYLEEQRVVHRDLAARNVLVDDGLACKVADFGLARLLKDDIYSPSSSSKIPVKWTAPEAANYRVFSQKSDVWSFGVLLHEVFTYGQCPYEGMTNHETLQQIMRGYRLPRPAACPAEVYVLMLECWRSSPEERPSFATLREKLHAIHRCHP

For `CS(=O)(=O)c1cccc(Nc2nccc(-c3sc(N4CCOCC4)nc3-c3cccc(NS(=O)(=O)c4c(F)cccc4F)c3)n2)c1`, the inhibition in [1] was 98.4%; in assay [2] it was -3.18%; in assay [3], 4.42%; in assay [4], 6.34%; in assay [6], 9.85%; in assay [7], 29.4%. Moreover, the figures for the inhibition in assay [8] and in assay [9] were 89.2% and 5.17%, respectively. In assay [5], the concentration for half-maximal inhibition (IC50) worked out at 6.3 nM.
On to `CC(C)(C)c1cc(NC(=O)Nc2ccc(Oc3ccncc3)cc2)no1`, for which the inhibition in [1] is -2.8%; in [2], -4.39%; in assay [3], 2.3%; in [4], 37%; in assay [6] it was 4.69%; in [7], 15.2%. Further, the inhibition in [8] came out at 3.88%; in [9] it was 49.5%. Besides, in [5], the half-inhibitory concentration (IC50) came to 63 nM.
Take `COCCNC(=O)c1ccc2c(c1)nc(-c1cnc(-c3ccc(Cl)cc3)[nH]1)n2CCOC`: the inhibition in assay [1] came to 4.18%; in assay [2] it was 3%; in assay [3], 2.91%; in assay [4] it was 3.39%; in assay [6], 5.69%; in [7] it was 6.98%. Further, the inhibition in assay [8] amounted to 5.53%; in assay [9], 7.07%. Besides, the IC50 in assay [5] was 12 nM.
